# Where two headings read alike, the source gives them in different places.
# Assays:
# Assay type in all cases: cell-based
# [1] = tested on: HIV-1 LAI; assay: Evaluation of anti-HIV activity (MT-2 cells exposed to HIV-1 LAI, MTT assay); settings: Human immunodeficiency virus 1, MT2, 168 h, 7 days, read-out: Antiviral activity, EC50 HIV-1
# Text: HIV-1 LAI was used as a wild-type HIV-1 molecular clone. In addition, MT-2 cells were used as cells to be infected. These cells were continuously cultured and maintained in a RPMI-1640 medium containing 10% FCS and supplemented with the aforementioned antibiotics. The MT-2 cells were exposed to HIV-1 LAI virus in an amount of 50 times the 50% infectious concentration (TCID 50), and the resultant MT-2 cells and a medium supplemented with each of the nucleoside derivatives at each of concentrations after serial dilution were together seeded into each cell of a 96-well cell culture dish at a concentration of 1×10^4 cells/mL. Then, after culturing for 7 days in the presence of each nucleoside derivative under standard culture conditions of 37° C. and 5% CO2, the number of live cells in each well was quantified by MTT assay. Based on the numbers of live cells obtained, the EC50 value was calculated and the anti-HIV activity of each nucleoside derivative was evaluated.
# [2] = tested on: HBV; assay: Evaluation of anti-HBV activity (HepG2 2.2.15.7 cells, HBV DNA qPCR); settings: Hepatitis B virus
# Experimental: HepG2 2.2.15.7 cells were used as test cells. The HepG2 2.2.15.7 cells were prepared by using, as parent cell lines, HepG2 2.2.15 cells prepared so as to continuously produce HBV by introducing the HBV genes into human hepatoma cell lines (HepG2 cells). Meanwhile, the HepG2 2.2.15.7 cells were maintained by continuous culturing in DMEM containing 10% fetal calf serum, G418 (500 μg/ml), and antibiotics (penicillin and kanamycin).
# The HepG2 2.2.15.7 cells are HBV continuously producing cells that carry not only genomically integrated DNAs, but also HBV genes produced as episomes. Therefore, the HepG2 2.2.15.7 cells were co-cultured with each nucleoside derivative, the DNA copy number of viruses released into the culture supernatant and the DNA copy number of the viruses present in the HepG2 2.2.15.7 cells were quantified, and a degree of decrease thereof was used as an index of the evaluation of the anti-HBV activity.
# More specifically, the epG2 2.2.15.7 cells with a cell viability of 90% or more were seeded in a collagen-coated 96-well cell culture dish at a concentration of 2×10^4 cells/ml, and each nucleoside derivative was added at various concentrations at the same day as the cell seeding. After culturing for 3 days under the standard culture conditions of 37° C. and 5% CO2, the medium was exchanged to a fresh medium containing each nucleoside derivative, and HBV DNA was collected from the culture supernatant on the third day after the exchange for a 1W assay (an assay on day 7 from the start of culture). In addition, a fresh medium containing each nucleoside derivative was further added to the cell plate after the collection of the supernatant, and the culture was further continued for 7 days. For a 2W assay (an assay on day 14 from the start of culture), intracellular HBV DNAs were collected from the HepG2 2.2.15.7 cells. Using these DNAs as a template, the quantitative PCR was performed to find the virus copy number from the calibration curve, and the 50% effect (EC50) for each nucleoside derivative was calculated.
# The DNA extractions from the supernatant of the HepG2 2.2.15.7 cells and from inside the cells were carried out using QIAamp Mini Elute virus Spin Kit (manufactured by QIAGEN), and 5 μL of the extracted DNAs was used for the qPCR. The PCR reaction was conducted by using a specific TaqMan probe primer, manufactured by Primer Design Ltd., which detects the HBV core protein region. The PCR reaction was carried out at 95° C. for 15 minutes, followed by 50 cycles of 95° C. for 10 seconds and 60° C. for 60 seconds. The obtained CT was converted to the HBV copy number using a calibration curve obtained from reactions in which HBV DNA fragments at a known concentration were diluted every 10-fold (from to 2×10^8 copies).
# [3] = Cytotoxicity test 1, MT-2 cells (MTT assay); settings: human
# Experimental: (§1) The above nucleoside derivatives were also subjected to cytotoxicity tests on the MT-2 cells and HepG2 cells. Together with the medium to which each nucleoside derivative at each concentration after serial dilution was added, the MT-2 cells were seeded at a concentration of 1×10^4, whereas the HepG2 cells were seeded at a concentration of 1×10^4. Thus, these cells were cultured in the presence of each nucleoside derivative at various concentrations for 7 days under the standard culture conditions of 37° C. and 5% CO2, and thereafter the number of live cells in each well was quantified by an MTT assay. Based on the numbers of live cells obtained, the CC50 was calculated for each nucleoside derivative.
# [4] = Cytotoxicity test 1, HepG2 cells (MTT assay); settings: human
# Experimental: as §1
# [5] = tested on: ETV resistant strain (genotype: HBV/Ce); assay: Evaluation of anti-HBV/Ce activity (Huh-7 cells transfected with ETV resistant strain, Southern blot); settings: Hepatitis B virus, Huh-7, 72 h, read-out: Antiviral activity, EC50 HBV ETVr
# Experimental: Regarding the above nucleoside derivatives, each nucleoside derivative was added to Huh-7 cells transfected with an ETV resistant strain (genotype: HBV/Ce, referred to as “HBV ETVr” in Table 1). After 72 hours from the addition, DNAs were extracted from the cells according to a conventional method, and analyzed by Southern blot using a probe for the HBV gene. Thus, the DNA copy number of the viruses was quantified, and the EC50 value was calculated in the same way as described above.
# [6] = Cytotoxicity test 2, PXB cells (MTT assay); settings: PXB cells (fresh human hepatocytes)
# Experimental: PXB cells were used as test cells. PXB cells were fresh human hepatocytes isolated from chimeric mice with humanized liver and were maintained in a dHCGM medium for PXB cells. Both the cells and the medium are made by PhoenixBio Co., Ltd.
# The PXB cells were seeded at 3×10^5 cells/ml on a collagen-coated 96-well plate and cultured together with each compound at each concentration after stepwise dilution for 7 days under the standard culture conditions of 37° C. and 5% CO2, and thereafter the number of live cells in each well was quantified by an MTT assay. Based on the obtained values, the degree of cytotoxicity was determined, and the CC50 value was calculated as the cytotoxicity of each compound.
# [7] = 336 h, day 14, intracellular HBV DNA, read-out: Antiviral activity, EC50 HBV 2W assay
Compound,EC50 [1] [µM],"EC50 [2, 7] [µM]",CC50 at 7 days [3] [µM],CC50 at 7 days [4] [µM],"EC50 ([2]; 168 h, day 7, HBV DNA in culture supernatant, read-out: Antiviral activity, EC50 HBV 1W assay) [µM]",EC50 [5] [µM],CC50 at 7 days [6] [µM]
C=C1[C@@H](n2cnc3c(=O)[nH]c(N)nc32)C[C@H](O)[C@@]1(C#N)CO,0.16,0.03,> 100,89,,,
C=C1[C@@H](n2cnc3c(=O)[nH]c(N)nc32)C[C@H](O)[C@@]1(O)CO,> 1,0.01,> 100,67,,,
C=C1[C@@H](n2cnc3c(=O)[nH]c(N)nc32)C[C@H](O)[C@]1(CO)CF,> 1,0.09,> 100,> 100,,,
C=C[C@]1(CO)C(=C)[C@@H](n2cnc3c(=O)[nH]c(N)nc32)C[C@@H]1O,> 1,> 1,> 100,> 100,,,
C#C[C@]1(CO)C(=C)[C@@H](n2cnc3c(=O)[nH]c(N)nc32)C[C@@H]1O,0.027,> 1,> 100,> 100,,,
"N#C[C@]1(CO)/C(=C\F)[C@@H](n2cnc3c(=O)[nH]c(N)nc32)C[C@@H]1O [(1S,3S,5S,E)-3-(2-Amino-6-oxo-1,6-dihydro-9H-purin-9-yl)-2-(fluoromethylene)-5-hydroxy-1-(hydroxymethyl)cyclopentane-1-carbonitrile]",0.02,0.007,> 100,50,0.003,0.0653,> 100

# — US10933067B2, “Nucleoside derivative having physiological activity such as antiviral activity” (NATIONAL CENTER FOR GLOBAL HEALTH AND MEDICINE, priority 2016, dated 2021)
